In brackets after ≈: the same amount, converted by molar mass. Like-named read-outs stand apart in the source and are kept apart here. Each block holds one molecule with its values, some of them ahead of it.
Key:
LNCaP cells = assay: Cell viability (AlamarBlue), LNCaP prostate cancer cells; format: cell-based, human; design: key to EC50 (μM) in LNCaP cells: Inactive: less than 50% inhibition at the highest concentration tested at 50 μM; conditions: 72 hours of treatment
Description: (§1) In another exemplary method, half maximal effective concentration (EC50) was determined for some compounds and their isomers as disclosed herein in a variety of human cancer cell lines. In brief, cells from two prostate cancer cell lines (LNCaP, 22RV1), one glioblastoma cell line (U87), one breast cancer cell line (MCF7), a glioma cell line (LN18), a normal prostate cell line (RWPE1), and a glioblastoma cell line (T98G) were plated in a multi-well plate. After 24 hours, one of the compounds herein was added to the well at increasing concentrations. After 72 hours of treatment, cell viability was assessed using AlamrBlue® (Invitrogen) and fluorescence was read using the CLARIOstar Plus Multilabel Plate Reader (BMG Labtech). Samples were normalized to no treatment controls. EC50 values were determined using GraphPad Prism.

22RV1 cells = assay: Cell viability (AlamarBlue), 22RV1 prostate cancer cells; format: cell-based, human; design: key to EC50 (μM) in 22RV1 cells: Inactive: less than 50% inhibition at the highest concentration tested at 50 μM; conditions: 72 hours of treatment
Description: as §1

U87 cells = assay: Cell viability (AlamarBlue), U87 glioblastoma cells; format: cell-based, human; design: key to EC50 (μM) in U87 cells: Inactive: less than 50% inhibition at the highest concentration tested at 50 μM; conditions: 72 hours of treatment
Description: as §1

RWPE1 cells = assay: Cell viability (AlamarBlue), RWPE1 normal prostate cells; format: cell-based, human; design: key to EC50 (μM) in RWPE1 cells: Inactive: less than 50% inhibition at the highest concentration tested at 50 μM; conditions: normal prostate cell line; for EC50 (μM) in RWPE1 cells: 72 hours of treatment; for EC50: Homo sapiens, RWPE-1, 72 hours of treatment
Description: as §1

[1] = Kinetic solubility in aqueous PBS buffer (HPLC-MS); format: physicochemical; conditions: kinetic from dmso stock
Description: In another exemplary method, central nervous system multiparameter optimization (CNS MPO) score and kinetic solubility of selected compounds was determined. CNS MPO score for compounds and their isomers disclosed herein were calculated using an algorithm that uses a weighted scoring function assessing 6 key physicochemical properties (clogP, clogD, MW, TPSA, HBD, and pKa) for blood-brain-barrier (BBB penetration). CNS MPO score ranged from 0 and 6.0 with scores≥4.0 used as a cut-off to select compounds that can have a high probability of accumulating in the CNS. Kinetic solubility of a compound is the maximum solubility of the fastest precipitating species of the compound. Kinetic solubility was determined by preparing a concentrated stock solution for compounds and their isomers disclosed herein in an organic solvent (DMSO), after which the solution was mixed with an aqueous PBS buffer and then filtered. Filtrate was tested to quantify the kinetic solubilty using HPLC-MS calibration curve. The CNS MPO Score and kinetic solubility of the compounds tested are provided in Table 7 where “ND” means not determined.

cancer cell = assay: Cancer cell viability, cell line not stated (per-compound ranges in description); format: cell-based; conditions: 'In some embodiments', values worded 'about', read-out: EC50 in cancer cell viability (range stated in description)
Description: as §1

[2] = 'In some embodiments', values worded 'about', read-out: kinetic solubility (range stated in description)

EC50 (LNCaP cells): 5 µM
EC50 (22RV1 cells): 21.2 µM
EC50 (U87 cells): 24 µM
SMILES: COC1CC(C(=O)NC(=O)Nc2ccc(Oc3ccc(C#N)cn3)c(C)c2)C1 (single isomer, unassigned) [Compound 16B, N-((4-((5-cyanopyridin-2-yl)oxy)-3-methylphenyl)carbamoyl)-3-methoxycyclobutane-1-carboxamide]
EC50 (μM) in RWPE1 cells (RWPE1 cells): Inactive

EC50 (LNCaP cells; Homo sapiens, LNCaP, 72 h): 0.15 µM
EC50 (22RV1 cells; Homo sapiens, 22Rv1, 72 h): 0.35 µM
EC50 (U87 cells; Homo sapiens, U-87 MG, 72 h): 0.89 µM
solubility kinetic ([1]; DMSO stock mixed with aqueous PBS buffer, filtered, read-out: Kinetic Solubility): 1 µM (≈ 0.411 µg/mL)
SMILES: COC1CC(C(=O)NC(=O)Nc2ccc(Oc3nc4ccccc4s3)c(C)c2)C1 (centres unmarked) [Compound 56, N-((4-(benzo[d]thiazol-2-yloxy)-3-methylphenyl)carbamoyl)-3-methoxycyclobutane-1-carboxamide]
EC50 (RWPE1 cells): 22.4 µM

EC50 (μM) in 22RV1 cells (22RV1 cells): Inactive
EC50 (μM) in U87 cells (U87 cells): Inactive
SMILES: COC1CCC(C(=O)NC(=O)Nc2ccc(Oc3ncc(Cl)cn3)c(F)c2)CC1 (single isomer, unassigned) [Compound 14B, N-((4-((5-chloropyrimidin-2-yl)oxy)-3-fluorophenyl)carbamoyl)-4-methoxycyclohexane-1-carboxamide]
EC50 (μM) in RWPE1 cells (RWPE1 cells): Inactive

solubility kinetic [1, 2]: 5 to 9 µM (≈ 1.87 to 3.36 µg/mL)
EC50 (cancer cell): 0.005 to 0.03 µM
SMILES: COC1CC(C(=O)NC(=O)Nc2ccc(C)c(Oc3ccc(F)cn3)c2)C1 (centres unmarked) [drawing 281, N-((3-((5-fluoropyridin-2-yl)oxy)-4-methylphenyl)carbamoyl)-3-methoxycyclobutane-1-carboxamide]

EC50 (LNCaP cells): 0.9 µM
EC50 (22RV1 cells): 2.8 µM
EC50 (U87 cells): 3.7 µM
SMILES: COC1CC(C(=O)NC(=O)Nc2ccc(Oc3nccs3)c(C)c2)C1 (single isomer, unassigned) [Compound 45A, 3-methoxy-N-((3-methyl-4-(thiazol-2-yloxy)phenyl)carbamoyl)cyclobutane-1-carboxamide]
EC50 (μM) in RWPE1 cells (RWPE1 cells): Inactive

EC50 (μM) in LNCaP cells (LNCaP cells): Inactive
EC50 (μM) in 22RV1 cells (22RV1 cells): Inactive
EC50 (μM) in U87 cells (U87 cells): Inactive
SMILES: O=C(NC(=O)C1CCCCC1)Nc1ccc(Oc2ncc(Cl)cn2)c(F)c1 [Compound 70, N-((4-((5-chloropyrimidin-2-yl)oxy)-3-fluorophenyl)carbamoyl)cyclohexanecarboxamide]
EC50 (μM) in RWPE1 cells (RWPE1 cells): Inactive

solubility kinetic [1, 2]: 25 to 30 µM (≈ 9.21 to 11.1 µg/mL)
EC50 (cancer cell): 0.5 to 4 µM
SMILES: COC12CC(C(=O)NC(=O)Nc3ccc(Oc4ncccn4)c(C)c3)(C1)C2 [drawing 274, 3-methoxy-N-((3-methyl-4-(pyrimidin-2-yloxy)phenyl)carbamoyl)bicyclo[1.1.1]pentane-1-carboxamide]

EC50 (cancer cell): 0.1 to 0.4 µM
SMILES: COC12CC(C(=O)NC(=O)Nc3ccc(Oc4ccccn4)c(C)c3)(C1)C2 [drawing 273, 3-methoxy-N-((3-methyl-4-(pyridin-2-yloxy)phenyl)carbamoyl)bicyclo[1.1.1]pentane-1-carboxamide]

EC50 (cancer cell): 0.05 to 0.35 µM
SMILES: COC12CC(C(=O)NC(=O)Nc3ccc(Oc4ccc(F)cn4)c(C)c3)(C1)C2 [drawing 276, N-((4-((5-fluoropyridin-2-yl)oxy)-3-methylphenyl)carbamoyl)-3-methoxybicyclo[1.1.1]pentane-1-carboxamide]

EC50 (LNCaP cells): 5 µM
EC50 (22RV1 cells): 15.3 µM
EC50 (U87 cells): 31.2 µM
SMILES: COC1CC(C(=O)NC(=O)Nc2ccc(Oc3ncc(Cl)cn3)c(C)c2)C1 (single isomer, unassigned) [Compound 20B, N-((4-((5-chloropyrimidin-2-yl)oxy)-3-methylphenyl)carbamoyl)-3-methoxycyclobutane-1-carboxamide]
EC50 (μM) in RWPE1 cells (RWPE1 cells): Inactive

EC50 (LNCaP cells; Homo sapiens, LNCaP, 72 h): 1.8 µM
EC50 (22RV1 cells; Homo sapiens, 22Rv1, 72 h): 1.1 µM
EC50 (U87 cells; Homo sapiens, U-87 MG, 72 h): 1.3 µM
SMILES: COC1CCC(C(=O)NC(=O)Nc2ccc(Oc3ncc(Cl)cn3)c(F)c2)CC1 (single isomer, unassigned) [Compound 14A, N-((4-((5-chloropyrimidin-2-yl)oxy)-3-fluorophenyl)carbamoyl)-4-methoxycyclohexane-1-carboxamide]
EC50 (RWPE1 cells): 1.3 µM

EC50 (cancer cell): 0.01 to 0.16 µM
SMILES: COC12CC(C(=O)NC(=O)Nc3ccc(Oc4ccc(Cl)cn4)c(C)c3)(C1)C2 [drawing 271, N-((4-((5-chloropyridin-2-yl)oxy)-3-methylphenyl)carbamoyl)-3-methoxybicyclo[1.1.1]pentane-1-carboxamide]

EC50 (LNCaP cells): 1.3 µM
EC50 (22RV1 cells): 4.2 µM
EC50 (U87 cells): 13.7 µM
SMILES: COC1CC(C(=O)NC(=O)Nc2ccc(Oc3ccc(Cl)cn3)c(C)c2)C1 (single isomer, unassigned) [Compound 19B, 1-{4-[(5-chloropyridin-2-yl)oxy]-3-methylphenyl}-3-(3-methoxycyclobutanecarbonyl) urea]
EC50 (μM) in RWPE1 cells (RWPE1 cells): Inactive

EC50 (μM) in LNCaP cells (LNCaP cells): Inactive
EC50 (μM) in 22RV1 cells (22RV1 cells): Inactive
EC50 (μM) in U87 cells (U87 cells): Inactive
SMILES: COC1CCC(C(=O)NC(=O)Nc2ccc(Oc3ccc(Cl)cn3)cc2F)CC1 (centres unmarked) [Compound 24, 3-{4-[(5-chloropyridin-2-yl)oxy]-2-fluorophenyl}-1-(4-methoxycyclohexanecarbonyl)urea]
EC50 (RWPE1 cells): 31 µM

EC50 (LNCaP cells): 3.9 µM
EC50 (22RV1 cells): 17.3 µM
EC50 (U87 cells): 22 µM
SMILES: COC1CC(C(=O)NC(=O)Nc2ccc(Oc3ccc(F)cn3)c(C)c2)C1 (single isomer, unassigned) [Compound 15B, N-((4-((5-fluoropyridin-2-yl)oxy)-3-methylphenyl)carbamoyl)-3-methoxycyclobutanecarboxamide]
EC50 (μM) in RWPE1 cells (RWPE1 cells): Inactive

EC50 (cancer cell): 0.02 to 0.07 µM
SMILES: COC12CC(C(=O)NC(=O)Nc3ccc(C)c(Oc4ccccn4)c3)(C1)C2 [drawing 284, 3-methoxy-N-((4-methyl-3-(pyridin-2-yloxy)phenyl)carbamoyl)bicyclo[1.1.1]pentane-1-carboxamide]

EC50 (LNCaP cells): 4 µM
EC50 (22RV1 cells): 14.2 µM
EC50 (U87 cells): 12.2 µM
SMILES: COC1CC(C(=O)NC(=O)Nc2ccc(Oc3nccs3)c(C)c2)C1 (single isomer, unassigned) [Compound 45B, 3-methoxy-N-((3-methyl-4-(thiazol-2-yloxy)phenyl)carbamoyl)cyclobutane-1-carboxamide]
EC50 (μM) in RWPE1 cells (RWPE1 cells): Inactive

EC50 (μM) in LNCaP cells (LNCaP cells): Inactive
EC50 (μM) in 22RV1 cells (22RV1 cells): Inactive
EC50 (μM) in U87 cells (U87 cells): Inactive
SMILES: COC1CCC(C(=O)NC(=O)Nc2ccc(Oc3cccnn3)c(C)c2)CC1 (centres unmarked) [Compound 22, 1-(4-methoxycyclohexanecarbonyl)-3-[3-methyl-4-(pyridazin-3-yloxy)phenyl]urea]
EC50 (μM) in RWPE1 cells (RWPE1 cells): Inactive

EC50 (LNCaP cells; Homo sapiens, LNCaP, 72 h): 19.7 µM
EC50 (22RV1 cells; Homo sapiens, 22Rv1, 72 h): 24 µM
EC50 (U87 cells; Homo sapiens, U-87 MG, 72 h): 20.8 µM
SMILES: COC1CCC(C(=O)NC(=O)Nc2ccc(Oc3ncco3)c(C)c2)CC1 (centres unmarked) [Compound 21, 1-(4-methoxycyclohexanecarbonyl)-3-[3-methyl-4-(1,3-oxazol-2-yloxy)phenyl]urea]
EC50 (RWPE1 cells): 33 µM

EC50 (μM) in LNCaP cells (LNCaP cells): Inactive
EC50 (22RV1 cells; Homo sapiens, 22Rv1, 72 h): 30.6 µM
EC50 (μM) in U87 cells (U87 cells): Inactive
SMILES: COC1CCC(C(=O)NC(=O)Nc2ccc(Oc3ncc(Cl)cn3)cc2F)CC1 (centres unmarked) [Compound 23, 3-{4-[(5-chloropyrimidin-2-yl)oxy]-2-fluorophenyl}-1-(4-methoxycyclohexanecarbonyl)urea]
EC50 (μM) in RWPE1 cells (RWPE1 cells): Inactive

EC50 (cancer cell): 0.087 to 0.63 µM
SMILES: COC12CC(C(=O)NC(=O)Nc3cc(C)c(Oc4ccc(F)cn4)c(F)c3)(C1)C2 [drawing 278, N-((3-fluoro-4-((5-fluoropyridin-2-yl)oxy)-5-methylphenyl)carbamoyl)-3-methoxybicyclo[1.1.1]pentane-1-carboxamide]

Source: patent US12404242B2, “Compositions and methods for making and using small molecules in the treatment of cancer” (Reglagene, Inc., priority 2021, dated 2025)
